Assays:
[1] = biological target: T1, p38α (Homo sapiens, UniProt Q16539); test: p38 Kinase Assay (ATF-2 phosphorylation ELISA); assay type: biochemical; conditions: 2 h pre-incubation, ATP 250 μM, 1% DMSO; read-out: p38α inhibition (IC50 values)
T1 construct: purchased Calbiochem 559324; host or cells: E. coli
Experimental: Human recombinant p38 enzyme expressed in E. coli and activated by incubation with MKK6 enzyme (Calbiochem #559324) is used as source of enzyme activity.
The assay is carried in high binding, clear, flat bottom 96 well assay plates which have been coated with recombinant ATF-2 (Biosource #PHF0043). Test compounds are incubated with p38 kinase for 2 h prior to initiating the kinase assay by the addition of ATP to obtain an assay concentration of 250 μM. Phosphorylation of ATF-2 is detected and quantified using an ELISA. This consists of sequential incubation in the presence of anti-phospho-ATF2, biotinylated anti-IgG and streptavidin-HRP. Incubation with an HRP chromogenic substrate (TMB) results in absorbance that is proportional to the amount of phosphorylated substrate produced. Absorbance is detected using a multiwell plate reader.
Compounds are diluted in DMSO prior to addition to assay buffer, the final DMSO concentration in the assay being 1%.
The IC50 is defined as the concentration at which a given compound achieves 50% inhibition of control.

[2] = system: TNFα release from LPS activated THP-1 cells or PBMC's; test: p38 Functional Assay (TNFα release after LPS); assay type: cell-based; conditions: Homo sapiens, 1 h pre-treatment, 0.3% DMSO, read-out: EC50 (inhibition of TNFα release)
Experimental: Inhibition of cellular p38 depresses the release of TNFα, a functional response which is quantified by measurement of the amount of TNFα in the supernatants of LPS activated THP-1 cells (an immortalised monocytic cell line) or peripheral blood mononuclear cells (PBMC's) isolated from freshly drawn human blood.
Cells seeded in 96 well plates are pre-treated by the addition of p38 inhibitors for 1 h followed by addition of lipopolysaccharide (LPS) to activate cytokine production and release. The amount of TNFα released into the cell supernatants is quantified using an R&D Systems enzyme linked immunosorbant assay (ELISA) kit (product DY210) following the manufacturers instructions.
Compounds are diluted in DMSO prior to addition, the final DMSO concentration in the assay being 0.3%. The EC50 is defined as the concentration at which a given compound achieves 50% inhibition of the control.

[3] = system: BAL cell influx induced by tobacco smoke; test: Tobacco smoke induced pulmonary inflammation, mouse model of COPD inflammation; assay type: in vivo; conditions: mice, intranasal, 30, 100 or 300 μg/kg, 4 days TS, BAL 24 h after final exposure (FIG. 1)
Experimental: Pre-clinical mouse model of COPD inflammation—Tobacco smoke induced pulmonary inflammation. […] In this exposure protocol, mice were exposed in groups of 5 in individual clear polycarbonate chambers (27 cm×16 cm×12 cm). The TS from the cigarettes was allowed to enter the exposure chambers at a flow rate of 100 ml/min. In order to minimise any potential problems caused by repeated exposure to a high level of TS (6 cigarettes), the exposure of the mice to TS was increased gradually over the exposure period to a maximum of 6 cigarettes. The exposure schedule used for 4 days was as follows: Bronchoalveolar lavage was performed as follows: the trachea was cannulated using a Portex nylon intravenous cannula (pink luer fitting) shortened to approximately 8 mm. […] The cell pellet was re-suspended in a known volume of PBS and total cell numbers calculated by counting a stained (Turks stain) aliquot under a microscope using a haemocytometer. […] When dried and cover-slipped, differential cells were counted using light microscopy. Up to 400 cells were counted by unbiased operator using light microscopy. […] All results are presented as individual data points for each animal and the mean value was calculated for each group. […] Percentage inhibitions were automatically calculated within the Excel spreadsheets for the cell data using the formula below: […]

T1 sequence (Q16539 whole entry): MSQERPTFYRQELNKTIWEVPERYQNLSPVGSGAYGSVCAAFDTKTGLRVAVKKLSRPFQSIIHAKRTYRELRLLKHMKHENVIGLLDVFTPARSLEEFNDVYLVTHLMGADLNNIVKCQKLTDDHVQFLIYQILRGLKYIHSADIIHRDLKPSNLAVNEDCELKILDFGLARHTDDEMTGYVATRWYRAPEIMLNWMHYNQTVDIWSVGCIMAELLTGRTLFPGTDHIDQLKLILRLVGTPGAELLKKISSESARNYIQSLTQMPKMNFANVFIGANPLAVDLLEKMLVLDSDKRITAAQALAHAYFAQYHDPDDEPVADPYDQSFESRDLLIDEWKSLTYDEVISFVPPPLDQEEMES

**Q.** Which results are given for `Cc1ccc(-n2nc(C(C)(C)C)cc2NC(=O)Nc2ccc(Sc3ccc4nnc(-c5cccc(OCCN6CCOCC6)c5)n4c3)cc2)cc1` [Example 10, 1-(5-tert-Butyl-2-p-tolyl-2H-pyrazol-3-yl)-3-(4-{3-[3-(2-morpholin-4-yl-ethoxy)-phenyl]-[1,2,4]triazolo[4,3-a]pyridin-6-ylsulfanyl}-phenyl)-urea]?
**A.** IC50 [1]: 10 to 100 nM; EC50 [2]: 10 to 100 nM; BAL cell influx induced by TS [3]: significantly inhibited
